# Results published in patent publication US20240228488A1 (TAKEDA PHARMACEUTICAL COMPANY LIMITED, priority 2021, published 2024).
# Biological target: human activated kallikrein enzyme (Homo sapiens, UniProt P03952)
# Experiment: Plasma kallikrein inhibition, fluorogenic PFR-AMC substrate, 500 pM activated kallikrein format
# Type: biochemical
# Conditions: 500 pM activated kallikrein, 300 uM PFR-AMC, 30 min preincubation, 10 min reaction; read-out: Primary Dose Response Assay: Average EC50
# Procedure: Compounds were evaluated for inhibition of the human activated kallikrein enzyme in two formats of an assay employing a fluorogenic peptide substrate. In one assay format, the concentrations of reagents were as follows: 20 mM Tris pH 7.5, 1 mM EDTA, 150 mM sodium chloride, 0.1% PEG-400, 0.1% Triton X-100, 500 pM activated kallikrein enzyme, 300 uM Pro-Phe-Arg-7-amido-4-methylcoumarin (PFR-AMC) substrate. Prior to reaction initiation with substrate, enzyme and inhibitors were preincubated for 30 min at room temperature. After initiation with substrate, reactions were incubated for 10 min at room temperature and fluorescence emission at 460 nm from 380 nm excitation measured with a microplate reader. In another assay format, the concentrations of reagents were as follows: 20 mM Tris pH 7.5, 1 mM EDTA, 150 mM sodium chloride, 0.1% PEG-400, 0.1% Triton X-100, 5 pM activated kallikrein enzyme, 300 uM PFR-AMC substrate. Prior to reaction initiation with substrate, enzyme and inhibitors were preincubated for 30 min at room temperature. After initiation with substrate, reactions were incubated for 18 hr at room temperature and fluorescence emission at 460 nm from 380 nm excitation measured with a microplate reader.
# Table 49 provides the results of the assay in the format with 500 pM activated kallikrein assay. For the compounds listed in Table 49, the EC50 values are reported according to the following ranges: A≤1.0 nM; 1.0 nM<B≤10 nM; 10 nM<C≤100 nM; 100 nM<D≤1000 nM; 1000 nM<E≤6000 nM; 6000 nM<F.
# Table 51 provides comparative plasma kallikrein inhibition potency in the assay format with 500 pM activated kallikrein assay (described in detail in a preceding example). For the compounds listed in Table 51, the EC50 values are reported according to the following ranges: A≤1.0 nM; 1.0 nM<B≤10 nM; 10 nM<C≤100 nM; 100 nM<D≤1000 nM; 1000 nM<E≤6000 nM; 6000 nM<F.
# Chain of human activated kallikrein enzyme (P03952 391-638 limits assumed): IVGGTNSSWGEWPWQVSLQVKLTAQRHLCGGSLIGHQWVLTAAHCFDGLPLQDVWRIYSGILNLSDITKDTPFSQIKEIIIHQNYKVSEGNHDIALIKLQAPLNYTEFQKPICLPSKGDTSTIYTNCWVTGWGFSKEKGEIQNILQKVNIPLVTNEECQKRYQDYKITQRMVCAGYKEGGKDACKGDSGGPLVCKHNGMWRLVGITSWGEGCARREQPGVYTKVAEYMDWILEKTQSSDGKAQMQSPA
# Chain of human activated kallikrein enzyme (P03952 20-390 partner limits assumed): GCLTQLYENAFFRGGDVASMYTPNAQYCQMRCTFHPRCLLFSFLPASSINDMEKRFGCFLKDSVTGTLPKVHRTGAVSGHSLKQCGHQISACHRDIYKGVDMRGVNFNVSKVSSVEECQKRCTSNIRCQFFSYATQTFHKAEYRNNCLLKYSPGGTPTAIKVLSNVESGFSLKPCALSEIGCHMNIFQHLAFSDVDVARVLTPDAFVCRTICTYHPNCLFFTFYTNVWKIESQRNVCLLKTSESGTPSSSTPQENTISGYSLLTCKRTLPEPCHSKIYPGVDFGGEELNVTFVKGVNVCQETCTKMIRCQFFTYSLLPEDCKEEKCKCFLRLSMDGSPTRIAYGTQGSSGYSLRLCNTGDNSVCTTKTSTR
row,SMILES,EC50 [nM]
1,"Nc1ccc(Cl)cc1[C@H]1C[C@@H]1C(=O)Nc1cc(NCc2cn3cc(C4CC4)ccc3n2)ncn1 (racemic) [Example 279, rac-(1S*,2S*)-2-(2-amino-5-chlorophenyl)-N-(6-(((6-cyclopropylimidazo[1,2-a]pyridin-2-yl)methyl)amino)pyrimidin-4-yl)cyclopropane-1-carboxamide]",100 to 1000
2,"O=C(Nc1cc(NCc2cn3cc(C4CC4)ccc3n2)ncn1)[C@H]1C[C@@H]1c1cc(Cl)ccc1F (racemic) [Example 44, rac-(1S*,2S*)-2-(5-chloro-2-fluorophenyl)-N-(6-(((6-cyclopropylimidazo[1,2-a]pyridin-2-yl)methyl)amino)pyrimidin-4-yl)cyclopropane-1-carboxamide]",10 to 100
3,"Cc1ccnc([C@H]2C[C@@H]2C(=O)Nc2cc(N[C@H](C)c3cn4cc(C5CC5)cc(N5C(=O)N(C)C(=O)C56COC6)c4n3)ncn2)n1 [Example 420, (1S,2S)-N-(6-(((R)-1-(6-cyclopropyl-8-(7-methyl-6,8-dioxo-2-oxa-5,7-diazaspiro[3.4]octan-5-yl)imidazo[1,2-a]pyridin-2-yl)ethyl)amino)pyrimidin-4-yl)-2-(4-methylpyrimidin-2-yl)cyclopropane-1-carboxamide]",< 1
4,"O=C(Nc1cc(NCc2cn3cc(C4CC4)cc(N4CCCC4C(F)(F)F)c3n2)ncn1)[C@H]1C[C@@H]1c1cccc(Cl)c1 (stereo partly drawn) [Example I-158, (1S,2S)-2-(3-chlorophenyl)-N-(6-(((6-cyclopropyl-8-(2-(trifluoromethyl)pyrrolidin-1-yl)imidazo[1,2-a]pyridin-2-yl)methyl)amino)pyrimidin-4-yl)cyclopropane-1-carboxamide]",100 to 1000
5,"N#Cc1cc(C2CC2)cn2cc(COc3ccnc(NC(=O)[C@H]4C[C@@H]4c4cccc(Cl)c4)c3)nc12 (racemic) [Example 567, rac-(1S*,2S*)-2-(3-chlorophenyl)-N-(4-((8-cyano-6-cyclopropylimidazo[1,2-a]pyridin-2-yl)methoxy)pyridin-2-yl)cyclopropane-1-carboxamide]",10 to 100
6,"Cc1ccnc([C@H]2C[C@@H]2C(=O)Nc2cc(N[C@H](C)c3cn4cc(C5CC5)cc(N5CC(=O)NC5=O)c4n3)nc(C)n2)n1 [Example 532, (1S,2S)-N-(6-(((R)-1-(6-cyclopropyl-8-(2,4-dioxoimidazolidin-1-yl)imidazo[1,2-a]pyridin-2-yl)ethyl)amino)-2-methylpyrimidin-4-yl)-2-(4-methylpyrimidin-2-yl)cyclopropane-1-carboxamide]",< 1
7,"O=C(Nc1cc(NCc2cn3cc(C4CC4)ccc3n2)ccn1)[C@H]1[C@H](CO)[C@@H]1c1cccc(Cl)c1 (racemic) [Example I-213, rac-(1R*,2S*,3R*)-2-(3-chlorophenyl)-N-(4-(((6-cyclopropylimidazo[1,2-a]pyridin-2-yl)methyl)amino)pyridin-2-yl)-3-(hydroxymethyl)cyclopropane-1-carboxamide]",1 to 10
8,"COc1cc(NCc2cn3cc(C4CC4)ccc3n2)cc(NC(=O)[C@H]2C[C@@H]2c2cc(Cl)ccn2)n1 [Example 339, (1S,2S)-2-(4-chloropyridin-2-yl)-N-(4-(((6-cyclopropylimidazo[1,2-a]pyridin-2-yl)methyl)amino)-6-methoxypyridin-2-yl)cyclopropane-1-carboxamide]",1 to 10
9,"Cc1ccnc([C@H]2C[C@@H]2C(=O)Nc2cc(OCc3cn4cc(C5CC5)cc(N5CC(=O)N(C)C5=O)c4n3)c(CO)nn2)n1 [Example 677, (1S,2S)—N-(5-((6-cyclopropyl-8-(3-methyl-2,4-dioxoimidazolidin-1-yl)imidazo[1,2-a]pyridin-2-yl)methoxy)-6-(hydroxymethyl)pyridazin-3-yl)-2-(4-methylpyrimidin-2-yl)cyclopropane-1-carboxamide]",< 1
10,"O=C(Nc1cc(NCc2cn3cc(C4CC4)ccc3n2)ncn1)[C@H]1C[C@@H]1c1cccc(Cl)c1 (racemic) [Example 55, rac-(1S*,2S*)-2-(3-chlorophenyl)-N-(6-(((6-cyclopropylimidazo[1,2-a]pyridin-2-yl)methyl)amino)pyrimidin-4-yl)cyclopropane-1-carboxamide]",1 to 10
11,"Cc1ccnc([C@H]2C[C@@H]2C(=O)Nc2cc(OCc3cn4c(N5CC(=O)N(C)C5=O)cc(C5CC5)cc4n3)ncn2)n1 [Example 554, (1S,2S)-N-(6-((7-cyclopropyl-5-(3-methyl-2,4-dioxoimidazolidin-1-yl)imidazo[1,2-a]pyridin-2-yl)methoxy)pyrimidin-4-yl)-2-(4-methylpyrimidin-2-yl)cyclopropane-1-carboxamide]",100 to 1000
12,"O=C(Nc1noc(NCc2cn3cc(C4CC4)ccc3n2)n1)[C@H]1C[C@@H]1c1cccc(Cl)c1 [Example 615, (1S,2S)-2-(3-chlorophenyl)-N-(5-(((6-cyclopropylimidazo[1,2-a]pyridin-2-yl)methyl)amino)-1,2,4-oxadiazol-3-yl)cyclopropane-1-carboxamide]",1000 to 6000
13,"O=C(Nc1cc(NCc2cn3cc(C4CC4)ccc3n2)ncn1)[C@H]1C[C@@H]1c1cccc(Cl)c1F (racemic) [Example 43, rac-(1S*,2S*)-2-(3-chloro-2-fluorophenyl)-N-(6-(((6-cyclopropylimidazo[1,2-a]pyridin-2-yl)methyl)amino)pyrimidin-4-yl)cyclopropane-1-carboxamide]",10 to 100
14,"COCc1nc(NC(=O)[C@H]2C[C@@H]2c2nccc(C)n2)cc(N[C@H](C)c2cn3cc(C4(F)CC4)cc(N4CC(=O)N(C)C4=O)c3n2)n1 [Example 439, (1S,2S)-N-(6-(((R)-1-(6-(1-fluorocyclopropyl)-8-(3-methyl-2,4-dioxoimidazolidin-1-yl)imidazo[1,2-a]pyridin-2-yl)ethyl)amino)-2-(methoxymethyl)pyrimidin-4-yl)-2-(4-methylpyrimidin-2-yl)cyclopropane-1-carboxamide]",< 1
15,"O=C(Nc1cc(NCc2cn3cc(C4CC4)cc(CO)c3n2)ccn1)[C@H]1C[C@@H]1c1cccc(Cl)c1 (racemic) [Example 98, rac-(1S*,2S*)-2-(3-chlorophenyl)-N-(4-(((6-cyclopropyl-8-(hydroxymethyl)imidazo[1,2-a]pyridin-2-yl)methyl)amino)pyridin-2-yl)cyclopropane-1-carboxamide]",< 1
16,"O=C(Nc1cc(NCc2cn3cc(C4CC4)ccc3n2)ccn1)[C@H]1C[C@@H]1c1cc(Cl)ccn1 (single isomer, unassigned) [Example I-269, rac-(1S*,2S*)-2-(4-chloropyridin-2-yl)-N-(4-(((6-cyclopropylimidazo[1,2-a]pyridin-2-yl)methyl)amino)pyridin-2-yl)cyclopropane-1-carboxamide]",10 to 100
17,"COc1cc([C@H]2C[C@@H]2C(=O)Nc2cc(NCc3cn4cc(C5CC5)ccc4n3)ccn2)cc(N)n1 (racemic) [Example 286, rac-(1S*,2S*)-2-(2-amino-6-methoxypyridin-4-yl)-N-(4-(((6-cyclopropylimidazo[1,2-a]pyridin-2-yl)methyl)amino)pyridin-2-yl)cyclopropane-1-carboxamide]",10 to 100
18,"O=C(Nc1cc(NCc2cn3cc(C4CC4)ccc3n2)ncn1)[C@H]1C[C@@H]1c1n[nH]c2ccc(Cl)cc12 (racemic) [Example I-191, rac-(1S*,2S*)-2-(5-chloro-1H-indazol-3-yl)-N-(6-(((6-cyclopropylimidazo[1,2-a]pyridin-2-yl)methyl)amino)pyrimidin-4-yl)cyclopropane-1-carboxamide]",> 6000
19,"COc1ncccc1-c1cc(C2CC2)cn2cc(CNc3cc(NC(=O)[C@H]4C[C@@H]4c4cccc(Cl)c4)ncn3)nc12 [Example I-150, (1S,2S)-2-(3-chlorophenyl)-N-(6-(((6-cyclopropyl-8-(2-methoxypyridin-3-yl)imidazo[1,2-a]pyridin-2-yl)methyl)amino)pyrimidin-4-yl)cyclopropane-1-carboxamide]",10 to 100
20,"O=C(Nc1cc(N2C[C@@H](O)C[C@@H]2c2cn3cc(C4CC4)ccc3n2)ncn1)[C@H]1C[C@@H]1c1cc(Cl)ccn1 (single isomer, unassigned; isomer 1) [Example I-248, (1S*,2S*)-2-(4-chloropyridin-2-yl)-N-(6-((2R,4S)-2-(6-cyclopropylimidazo[1,2-a]pyridin-2-yl)-4-hydroxypyrrolidin-1-yl)pyrimidin-4-yl)cyclopropane-1-carboxamide, isomer 1]",1000 to 6000
21,"CO[C@H]1C[C@H](c2cn3cc(C4CC4)ccc3n2)N(c2cc(NC(=O)[C@H]3C[C@@H]3c3cccc(Cl)c3)ncn2)C1 [Example 616, (1S,2S)-2-(3-chlorophenyl)-N-(6-((2R,4S)-2-(6-cyclopropylimidazo[1,2-a]pyridin-2-yl)-4-methoxypyrrolidin-1-yl)pyrimidin-4-yl)cyclopropane-1-carboxamide]",> 6000
